PMC5653977 (EMBO Molecular Medicine, 2017)
Where a name gives a salt, the structure may show the parent alone.

tested on: NRG1-ERBB4 signaling; assay: Nrg1-ERBB4-PIK3R1 split TEV co-culture compound screen of the NIH Clinical Collection; assay type: cell-based, human; conditions: not given
Excerpt: For our HTS‐compatible split TEV assay approach, human full‐length ERBB4‐Cyt1 was fused to the NTEV fragment, a TEV protease cleavage site (tevS) and the artificial co‐transcriptional activator Gal4‐VP16 (ERBB4‐NTEV‐tevS‐GV); human PIK3R1 was fused to the CTEV fragment (PIK3R1‐CTEV) (Fig 1A). Upon ERBB4 activation, PIK3R1 is recruited to the receptor resulting in a reconstituted protease activity that cleaves off GV. In turn, released GV translocates to the nucleus and binds to upstream activating sequences (UAS) to activate the transcription of a firefly luciferase reporter gene (Fig 1A). A constitutively expressed Renilla luciferase driven under the control of the human thymidine kinase (TK) promoter was used as control to address off‐target effects related to toxicity.
For small molecule screening, the NIH‐NCC Clinical Collection library (sets NCC‐003 and NCC‐201) was used containing 727 small molecules that are FDA‐approved and have a history in clinical applications (www.nihclinicalcollection.com). A Hamilton Labstar robot connected to 37 and 4°C incubators for cell incubation and compound storage and application (Cytomat automated incubator, ThermoScientific) and to a luciferase reader (Berthold Technologies) was used to automatically perform the screening. […] Each batch was screened three times.
For one 96‐well plate, 4 × 10^6 PC12 cells were harvested and diluted in 5 ml assay medium (phenol red‐free DMEM (low glucose, Life Technologies), 10% FCS, 5% HS, no antibiotics). The split TEV assay plasmids (2 μg pcDNA3_ERBB4‐NTEV‐tevS‐GV‐2xHA, 2 μg pTag4C_PIK3R1‐CTEV‐2xHA, 2 μg p5xUAS_firefly luciferase, 2 μg pTK_Renilla luciferase, and 0.5 μg pECFP‐C1 for examining transfection efficiency) were diluted in 2.5 ml Opti‐MEM (Life Technologies) and vortexed. In parallel, 20 μl of the transfection reagent Lipofectamine 2000 was diluted in 2.5 ml Opti‐MEM and vortexed.
For plating of one 96‐well plate, 10 ml suspension, containing the 4 × 10^6 in solution‐transfected cells, was placed in the bubble paddle reservoir of the Hamilton Cellstar robot. 100 μl was seeded per 96‐well using the 96‐tip pipetting head. The homogeneity of the cell suspension was guaranteed over time by mild stirring using the paddling device inside the reservoir. For five plates each, 50 ml of additional cell suspension was used to allow for losses of inaccessible volume.
The cells were allowed to express the plasmids for 24 h before compounds were added. Proper expression and transfection efficiency were verified by ECFP expression on a clear control plate. The compounds were applied in a final concentration of 10 μM using DMSO as diluent. […] Thirty minutes later, 10,000 Nrg1‐expressing PC12 cells in 100 μl assay medium were seeded on top. 24 h after addition of the compounds, the cells were lysed using 40 μl Passive Lysis buffer (Promega) and subjected to a Dual Luciferase Assay (Promega) according to the manufacturer's instructions. The data were analyzed in R Bioconductor using the package cellHTS2 (http://www.bioconductor.org/packages/devel/bioc/html/cellHTS2.html), assessed using the z‐score, and visualized using the program Mondrian (http://stats.math.uni-augsburg.de/mondrian/).

Structure (SMILES) | Z-SCORE
CCCSc1ccc2nc(NC(=O)OC)[nH]c2c1 [Albendazole, reference compound] | -5.48

same assay, conditions: NIH Clinical Collection NCC-003 raw data; compounds ranked by Z-score; 'flagged' given instead of a Z-score

Structure (SMILES) | Z-SCORE
Cc1nnc2n1-c1ccc(Cl)cc1C(c1ccccc1)=NC2 [Alprazolam] | -2.27
CC(C)C[C@H](NC(=O)[C@@H](O)[C@H](N)Cc1ccccc1)C(=O)O [BESTATIN] | -1.11
CC(NC(C)(C)C)C(=O)c1cccc(Cl)c1 (centres unmarked) [BUPROPION HYDROCHLORIDE] | -2.1
c1ccc(-c2ccc(C(c3ccccc3)n3ccnc3)cc2)cc1 (centres unmarked) [Bifonazole, reference compound] | -3.45
CCCCCCNC(=O)n1cc(F)c(=O)[nH]c1=O [CARMOFUR] | -2.48
OC[C@H]1O[C@@H](n2cnc3c(NC4CCCC4)nc(Cl)nc32)[C@H](O)[C@@H]1O [CCPA] | -1.19

same assay, conditions: compound screen of the NIH Clinical Collection, sheet raw data NCC-003; compounds ranked by Z-score

Structure (SMILES) | Z-SCORE
O=C(c1ccc(F)cc1)C1CCN(CCn2c(=S)[nH]c3ccccc3c2=O)CC1 [Altanserin] | 0.71
CCN1CCCC1CNC(=O)c1cc(S(=O)(=O)CC)c(N)cc1OC (centres unmarked) [Amisulpride] | 0.41
CC(C)c1ccc2oc3nc(N)c(C(=O)O)cc3c(=O)c2c1 [Amlexanox, reference compound] | 4.7
CN1C(=O)COc2c(C(=O)NC3CN4CCC3CC4)cc(Cl)cc21 (centres unmarked) [Azasetron] | 0.46
O=C(O)CCNC(=O)c1ccc(/N=N/c2ccc(O)c(C(=O)O)c2)cc1 [BALSALAZIDE] | 0.84
CCN(CC)CCOC(=O)C(O)(c1ccccc1)c1ccccc1 [BENACTYZINE HYDROCHLORIDE] | 2.48
CCOC(=O)[C@H](CCc1ccccc1)N[C@H]1CCc2ccccc2N(CC(=O)O)C1=O [BENAZEPRIL HCl] | 0.26
CC(COc1ccccc1Cc1ccccc1)N1CCCCC1.O=P(O)(O)O (centres unmarked) [BENPROPERINE PHOSPHATE] | -0.08
C[C@]12CC[C@@H]3c4ccc(O)cc4CC[C@H]3[C@@H]1CC[C@@H]2O [BETA-ESTRADIOL] | 0.81
CC(O)(CS(=O)(=O)c1ccc(F)cc1)C(=O)Nc1ccc(C#N)c(C(F)(F)F)c1 (centres unmarked) [BICALUTAMIDE] | 0
CC(C)NCC(O)COc1ccc(COCCOC(C)C)cc1 (centres unmarked) [BISOPROLOL FUMARATE] | 0.59
C[C@H]1C[C@H]2[C@@H]3CCC4=CC(=O)C=C[C@]4(C)[C@@]3(Cl)[C@@H](O)C[C@]2(C)[C@@]1(O)C(=O)CO [Beclomethasone] | -0.67
N#CCc1ccccc1 [Benzeneacetonitrile] | 0.03
CC(C)NCC(O)COc1ccc(CCOCC2CC2)cc1 (centres unmarked) [Betaxolol hydrochloride] | 1.56
COc1cc2c(cc1OC)[C@@]13CCN4CC5=CCO[C@H]6CC(=O)N2[C@H]1[C@H]6[C@H]5C[C@H]43 [Brucine] | 0.21
COc1cc(OC)c(C(=O)CCCN2CCCC2)c(OC)c1.Cl [Buflomedil HCl] | 0.75
C=C1/C(=C\C=C2/CCC[C@]3(C)[C@@H]([C@H](C)/C=C/[C@@H](O)C4CC4)CC[C@@H]23)C[C@@H](O)C[C@@H]1O [CALCIPOTRIOL] | -0.04
C=C1/C(=C\C=C2/CCC[C@]3(C)[C@@H]([C@H](C)CCCC(C)(C)O)CC[C@@H]23)C[C@@H](O)C[C@@H]1O [CALCITRIOL] | -0.48
N[C@@H](C(=O)N[C@@H]1C(=O)N2C(C(=O)O)=C(Cl)CS[C@H]12)c1ccccc1 [CEFACLOR] | -0.62
CC(O)CO.N[C@@H](C(=O)N[C@@H]1C(=O)N2C(C(=O)O)=C(CSc3cn[nH]n3)CS[C@H]12)c1ccc(O)cc1 [CEFATRIZINE PROPYLENE GLYCOL] | 0.04
C=CC1=C(C(=O)O)N2C(=O)[C@@H](NC(=O)/C(=N\OCC(=O)O)c3csc(N)n3)[C@H]2SC1 [CEFIXIME TRIHYDRATE] | 1.63

same assay, conditions: compounds at 10 μM, 24 h; PC12 split TEV assay cells co-cultured with Nrg1-expressing PC12 cells; analysed with cellHTS2

Structure (SMILES) | Z-SCORE
Nc1ncnc2c1ncn2[C@@H]1O[C@H](CO)[C@@H](O)[C@@H]1O [Adenine 9-beta, reference compound] | 1.63
c1ccc2c(CC3=NCCN3)cccc2c1 [Albalon, reference compound] | -0.27
CC(C)(C(=O)O)c1ccc(C(O)CCCN2CCC(C(O)(c3ccccc3)c3ccccc3)CC2)cc1 (centres unmarked) [Allegra, reference compound] | -0.84
Oc1ncnc2[nH]ncc12 [Allopurinol, reference compound] | 0.21
CN(C)c1nc(N(C)C)nc(N(C)C)n1 [Altretamine, reference compound] | -0.4
CCC1(c2ccc(N)cc2)CCC(=O)NC1=O (centres unmarked) [Aminoglutethimide, reference compound] | -0.62
NCC(=O)CCC(=O)O [Aminolevulinic Acid, reference compound] | -0.04
CC(C)c1ccc2oc3nc(N)c(C(=O)O)cc3c(=O)c2c1 [Amlexanox, reference compound] | 4.7
CC1(C)S[C@@H]2[C@H](NC(=O)[C@H](N)c3ccccc3)C(=O)N2[C@H]1C(=O)O [Ampicillin Sodium, reference compound] | -1.31
CN(C)CCCN1c2ccccc2CCc2ccc(Cl)cc21 [Anafranil, reference compound] | 0.12
CN(C)CCC=C1c2ccccc2CCc2ccccc21.Cl [Annoyltin, reference compound] | 0.33
OC(CCN1CCCCC1)(c1ccccc1)C1CCCCC1 (centres unmarked) [Artane, reference compound] | -0.35
Cn1cnc([N+](=O)[O-])c1Sc1ncnc2nc[nH]c12 [Azathioprine, reference compound] | 0.16
CC[C@H]1OC(=O)[C@H](C)[C@@H](O[C@H]2C[C@@](C)(OC)[C@@H](O)[C@H](C)O2)[C@H](C)[C@@H](O[C@@H]2O[C@H](C)C[C@H](N(C)C)[C@H]2O)[C@](C)(O)C[C@@H](C)CN(C)[C@H](C)[C@@H](O)[C@]1(C)O [Azithromycin, reference compound] | 0.06
CCC(=O)OCC(=O)[C@@]1(OC(=O)CC)[C@@H](C)C[C@H]2[C@@H]3CCC4=CC(=O)C=C[C@]4(C)[C@@]3(Cl)[C@@H](O)C[C@@]21C [BECLOMETHASONE DIPROPIONATE, reference compound] | 0.81
CCCC1O[C@@H]2C[C@H]3[C@@H]4CCC5=CC(=O)C=C[C@]5(C)[C@H]4[C@@H](O)C[C@]3(C)[C@]2(C(=O)CO)O1 (some centres unmarked) [BUDESONIDE, reference compound] | -0.46
CCCCNc1cc(C(=O)O)cc(S(N)(=O)=O)c1Oc1ccccc1 [BUMETANIDE, reference compound] | -0.03
NS(=O)(=O)c1cc2c(cc1C(F)(F)F)NC(Cc1ccccc1)NS2(=O)=O (centres unmarked) [Bendrofluazide, reference compound] | 0.53
C[C@H]1C[C@H]2[C@@H]3CCC4=CC(=O)C=C[C@]4(C)[C@@]3(F)[C@@H](O)C[C@]2(C)[C@@]1(O)C(=O)CO [Betamethasone, reference compound] | 3.82
c1ccc(-c2ccc(C(c3ccccc3)n3ccnc3)cc2)cc1 (centres unmarked) [Bifonazole, reference compound] | -3.45
Brc1c(NC2=NCCN2)ccc2nccnc12 [Brimonidine, reference compound] | 0.01
O=C1CC2(CCCC2)CC(=O)N1CCCCN1CCN(c2ncccn2)CC1 [Buspar, reference compound] | -0.01
CS(=O)(=O)OCCCCOS(C)(=O)=O [Busulfan, reference compound] | 0.13
C[C@H](CS)C(=O)N1CCC[C@H]1C(=O)O [CAPTOPRIL, reference compound] | -0.02
C[C@@](Cc1ccc(O)c(O)c1)(NN)C(=O)O [CARBIDOPA, reference compound] | -1.58
Cc1nnc(SCC2=C(C(=O)O)N3C(=O)[C@@H](NC(=O)Cn4cnnn4)[C@H]3SC2)s1 [CEFAZOLIN SODIUM SALT, reference compound] | -0.74
CO/N=C(\C(=O)N[C@@H]1C(=O)N2C(C(=O)O)=C(COC(C)=O)CS[C@H]12)c1csc(N)n1 [CEFOTAXIME SODIUM SALT, reference compound] | -0.2
CO[C@@]1(NC(=O)Cc2cccs2)C(=O)N2C(C(=O)O)=C(COC(N)=O)CS[C@@H]21 [CEFOXITIN SODIUM SALT, reference compound] | 2.55
